The target of the assay is Metabotropic glutamate receptor 3 (Homo sapiens, UniProt Q14832). As to the kind of experiment: Positive allosteric modulation of human mGluR3 expressed in HEK293 cells assessed as increase in glutamate-induced calcium mobilization preincubated for 10 mins followed by glutamate addition and measured for 3 mins by Fluo4-AM dye based FLIPR assay. It counts as functional, cell-based. (Calcium assays in cells follow changes in intracellular calcium, usually with a dye or a luminescent sensor.)
Chain of Metabotropic glutamate receptor 3 (Q14832 whole entry): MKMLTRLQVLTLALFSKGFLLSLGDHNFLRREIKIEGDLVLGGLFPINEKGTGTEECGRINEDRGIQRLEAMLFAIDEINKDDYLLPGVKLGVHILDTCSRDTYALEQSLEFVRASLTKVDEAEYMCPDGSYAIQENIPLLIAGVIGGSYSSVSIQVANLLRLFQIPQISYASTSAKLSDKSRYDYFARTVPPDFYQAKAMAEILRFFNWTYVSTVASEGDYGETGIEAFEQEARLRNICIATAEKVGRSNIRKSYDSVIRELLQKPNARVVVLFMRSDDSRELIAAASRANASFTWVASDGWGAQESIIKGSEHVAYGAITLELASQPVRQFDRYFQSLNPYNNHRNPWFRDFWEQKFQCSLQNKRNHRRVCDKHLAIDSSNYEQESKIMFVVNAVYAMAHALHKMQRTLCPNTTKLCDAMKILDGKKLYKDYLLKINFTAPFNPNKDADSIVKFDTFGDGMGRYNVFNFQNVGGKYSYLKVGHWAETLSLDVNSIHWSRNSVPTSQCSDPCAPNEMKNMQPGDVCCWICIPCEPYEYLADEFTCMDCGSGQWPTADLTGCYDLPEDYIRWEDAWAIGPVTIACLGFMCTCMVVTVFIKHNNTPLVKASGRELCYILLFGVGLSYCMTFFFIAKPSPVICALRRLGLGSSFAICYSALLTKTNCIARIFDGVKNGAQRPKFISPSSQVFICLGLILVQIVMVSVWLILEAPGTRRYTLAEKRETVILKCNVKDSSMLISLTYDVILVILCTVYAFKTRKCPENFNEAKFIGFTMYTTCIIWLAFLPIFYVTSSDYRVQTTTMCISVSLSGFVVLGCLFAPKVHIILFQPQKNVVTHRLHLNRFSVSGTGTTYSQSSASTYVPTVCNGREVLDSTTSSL

A word on the EC50: it is the concentration at which the effect is half-maximal.

For `CN1C(=O)c2ncccc2-c2cc(-c3ccc(F)nc3)ccc2C12CC2`, the EC50 was below 100 nM.
Take `COc1ccc2c(n1)C(=O)N(C)Cc1ccc(-c3ccc(F)nc3)cc1-2`: the EC50 was below 100 nM.
The value for `CN1C(=O)c2ncccc2-c2cc(-c3ccc(F)cn3)ccc2C12CC2` was below 100 nM; that for `COc1ccc2c(n1)C(=O)N(C)C1(CC1)c1ccc(-c3ccc(F)nc3)cc1-2` was below 100 nM; that for `COCn1cc2c(n1)C(=O)N(C)C1(CC1)c1ccc(-c3ccc(F)nc3)cc1-2` was below 100 nM.
`CN1C(=O)c2cccn2-c2cc(-c3ccc(F)nc3)ccc2C12CCC2`: the concentration giving a half-maximal response (EC50) was below 100 nM.
The value for `COCn1cc2c(n1)C(=O)N(C)Cc1ccc(-c3ccc(F)cn3)cc1-2` was 100 to 1000 nM.
Turning to `CCn1cc2c(n1)C(=O)N(C)Cc1ccc(-c3cccnc3C)cc1-2`, the EC50 was 100 to 1000 nM.

The values above are taken from ChEMBL document CHEMBL4330174, “Allosteric mGluR3 Modulators for the Treatment of Psychiatric Disorders” (ACS Med Chem Lett, 2019).
